One experiment concerns hPSC-derived CMs. Conditions: CMs alone, without physical connection with symNs; cited from earlier work.
In experiment [1] the test system is hSCAs. Description: labetalol treatment during hSCA development: assembloid size and cell count. The experiment is classed as cell-based, human. The method, then: (§1) The effect of SymN activation on heart development has been reported, potentially through NE and adrenergic signaling^22,23. […] To test if the symNs in hSCAs play a regulatory role on cardiac development and maturation, the assembloids were treated with α- and β-adrenergic receptor antagonist labetalol (LAB, 1 μM) to fully block the NE signaling during the growth of the hSCAs (FIG. 4B). The drug was given from wk3, the stage when the assembloid growth almost reaches its plateau (FIG. 1E). Given that symN activity may promote cellular hyperplastic to hypertrophic transition of CM^22,23, the overall size of hSCAs was compared on wk5 after LAB treatment.

The subject of experiment [2] is hSCAs. Description: RT-qPCR of wk5 hSCAs for cardiac maturity markers after labetalol treatment. The experiment is classed as cell-based, human. Conditions: LAB 1 μM given from wk3, wk5 hSCAs, vs DMSO. The method, then:
(§2) 0.5×10^6 cells were collected using Trizol (Invitrogen, 15596026) for each sample. Reverse transcription with 1 μg total RNA was performed using iScript™ Reverse Transcription Supermix (Bio-Rad, 170884). SYBR green (Bio-Rad) RT-qPCR was ran using CFX96 Touch Deep Well Real-Time PCR Detection System (Bio-Rad), and analyzed by CFX Maestro.
as §1
On the technique in general: Quantitative PCR measures a nucleic acid by following its amplification.

A further experiment concerns symNs within the hSCAs. Conditions: nicotine 1 μM, wk5 hSCAs.
A further experiment concerns hPSC-derived symNs. Conditions: nicotine treatment; cited from earlier work.
Another experiment has as its system hypoxic hSCAs. Description: low oxygen (hypoxia-induced) cardiac infarction model on wk5 hSCAs. The experiment is classed as cell-based, human. The method, then: as §2
Wk5 hSCAs were fed with hSCA medium and placed into the hypoxia chamber (incubator subchamber system with O2/CO2 setpoint control, BioSpherix) with 10% O2, control group was maintained in regular culture condition (21% O2). hSCAs in both conditions were fed with fresh hSCA medium every 3 days for 10 days.
To test the effect of sympathetic input to cardiac function in the assembloids in a diseased state, a strategy was developed to model myocardial infarction. A model of myocardial infarction in cardiac organoids has been described^55. In this model, a moderate hypoxic environment (10% O2) was applied, which prevented massive and sudden cell death in 3D cardiac microtissues and allowed the observation of the progression of infarction. In addition to hypoxia, exogenous NE was added to the cardiac organoids to mimic the effects of increased sympathetic tone to the heart. […] The hypoxic stress stimulated overproduction of endogenous NE from symNs in hSCAs, measured via the NS510 probe and ELISA (FIG. 5C). […]

Another experiment relates to neonatal mouse hearts. Conditions: symN lesions in neonatal mouse hearts; cited from earlier work.

“Also recorded” adds a separate entry of the source.

Description for symNs within the hSCAs: To assess symN activity, calcium (Ca^2+) imaging was performed using Fluo-4 Ca^2+ labeling. To be able to distinguish Ca^2+ fluxes in symNs and not in cardiac tissues, symNblast were differentiated using the EF1-RFP reporter hPSC line and mixed with unlabeled cardiac progenitors (FIG. 3F).

As to `CC(C)NCC(O)c1ccc(O)c(O)c1` (stereo not drawn) [isoproterenol], the “improvement of CM maturity (mature cardiac gene expression, functional cardiac activity)” value in the experiment on hPSC-derived CMs was “not sufficient to induce such maturity improvement”.
As to `CC(CCc1ccccc1)NCC(O)c1ccc(O)c(C(N)=O)c1` (stereo not drawn) [LAB, labetalol], in the experiment with hSCAs [1] (LAB 1 μM given from wk3, compared on wk5, vs DMSO), the “overall size of hSCAs” value is reported as “Differences in assembloid size were not observed; also recorded: not altered”. Besides, the hSCA cell number entry in the experiment with hSCAs [1] (LAB-treated organoids compared to control, wk5) was “not altered”. Moreover, the “expression of markers of CM maturity (CX43, α-ACTININ, and CD36), RT-qPCR” value in the experiment on hSCAs [2] is “decreased expressions”.
For `CN1CCCC1c1cccnc1` (stereo not drawn) [nicotine], the hSCA beating efficiency result with symNs within the hSCAs was “increased hSCA beating efficiency”. The “spontaneous firing of action potentials” value with hPSC-derived symNs is “upregulated”.
For the compound `CC(C)NCC(O)COc1cccc2ccccc12` (stereo not drawn) [propranolol], in the experiment on hypoxic hSCAs (propranolol 1 μM in addition to low oxygen (10% O2, 10 days)), the “impaired expression of Ca2+ handling genes, RT-qPCR” value is “rescued”. Also, the “cardiac fibrosis caused by hypoxic stress” value in the experiment on hypoxic hSCAs (propranolol along with the hypoxic stress) is “rescued”.
Turning to `NCCc1cc(O)c(O)cc1O` [6-OHDA, 6-hydroxydopamine], in the experiment with neonatal mouse hearts, the “proliferation of CMs” value is given as “increased”.
